Where two headings read alike, the source gives them in different places. Marks after values point to notes of the source that are not given here.
Assays:
[1] = test system: trichomonas vaginalis; experiment: Pharmacodynamic study of trichomonas vaginalis infection in mice; format: in vivo; set-up: ED90: unit not given beside the values; conditions: male ICR mice infected intraperitoneally, drug i.v. at 2, 24, 48, 72 hours
Method: Male ICR mice were injected intraperitoneally with liquid containing 0.4 ml 3×10^6 trichomonas vaginalis (trichomonas vaginalis from clinical patients). The mice were randomly divided into 19 groups, each with 10. The mice in solvent control group were given blank solutions by tail vein injection. The treatment groups were injected intravenously at 2, 24, 48, and 72 hours after infection with active drugs. The animals were killed five days after infection. Washing offal, fluid was centrifuged, and microscopically examined for life larvae. Autopsy was performed to determine whether there was any visceral and abdominal abscess, microscopic examination was conducted to determine the number of live trichomoniasis in the abscess. […] The abscess formation was inhibited in the treatment groups[…] and the number of live trichomoniasis was reduced. Calculate the dosage of 50% (ED50) and 90% (ED90) inhibition rate.

[2] = Phase II clinical trial, oral tablets, departments of obstetrics/gynecology, adverse events; format: in vivo, human; conditions: human, in vivo, po
Method: (§1) Double-blinded randomized controlled trials were carried out to compare the adverse events of oral levo-ornidazole with racemate treatment groups. Two separate studies were conducted for patients with infections from either department of stomatology or obstetrics/gynecology.

[3] = test system: amoeba dysentery; experiment: Pharmacodynamic study of cecum amoeba infection in mice; format: in vivo; conditions: male ICR mice infected in the cecum, drug i.v. at 24, 48, 72 hours
Method: Male ICR mice were injected with liquid containing about 200,000 units of amoeba dysentery in the cecum. The mice were randomly divided into 19 groups, each with 10. The mice in solvent control group were given blank solutions by tail vein injection. The treatment groups were injected intravenously at 24, 48, 72 hours after infection with active drugs. The animals were killed six days after infection. Intestinal mucosal biopsies were done, and comparative studies of different stages of the amoeba were studied under microscope. […] Calculated the dosage of 50% (ED50) and 90% (ED90) inhibition rate.

[4] = Phase II clinical trial, oral tablets, departments of stomatology, adverse events; format: in vivo, human; conditions: human, in vivo, po
Method: as §1

[5] = test system: motor balance and coordination; conditions: both, mouse, in vivo
Method: Motor balance and coordination were tested using a modified beam walking method. Mice were put on a smooth beam tilted at an angle of 70 degree. Mice passed the test by standing on the beam for 0.5 minute without falling off. All the mice were pre-screened before the studies, and a total of 110 mice were selected by passing the beam test in 3 consecutive tries. The selected mice were divided into 11 groups with 10 mice in each group (half male and half female). At certain time points after drug administration, mice were tested on the beam for 3 consecutive times. A mouse was counted as failing to the test if it fell off the beam for 2 or more times.
The dose volume was 0.2 mL/10 gram and infusion rate was 0.2 mL/10 seconds. Chlorpromazine was used as the positive control.

[6] = rat, in vivo
[7] = test system: righting reflex; experiment: Hypnotic effect, loss of righting reflex; format: in vivo, mice; conditions: mouse, in vivo
Method: Thirty minutes after drug administration, the number of animals losing righting reflex (LORR) was recorded. […] Sodium pentobarbital was used at […] as the positive control.

[8] = test system: Beagle dogs; conditions: dog, in vivo, iv, 200 mg/kg
Method: In the studies, male and female Beagle dogs were treated at high doses of ornidazole enantiomers for 2 weeks, and then sacrificed for anatomical and pathological examinations. […] All the doses were administered in the levo- and racemate groups.

## Cc1ncc([N+](=O)[O-])n1C[C@H](O)CCl [L-ornidazole, S-(−)-ornidazole]
[1]; Trichomonas vaginalis, dosage of 50% inhibition rate, read-out: ED50
  ED50: 9.1 mg/kg
[1]; dosage of 90% inhibition rate
  ED90: 32.6
[2]
  Abdominal pain, # of Patients with AE: 0
  Abdominal pain, Incidence (%): 0.00%
  Appetite drop, # of Patients with AE: 0
  Appetite drop, Incidence (%): 0.00%
  Bitter taste, # of Patients with AE: 0
  Bitter taste, Incidence (%): 0.00%
  Bloating, # of Patients with AE: 0
  Bloating, Incidence (%): 0.00%
  Blurred vision, # of Patients with AE: 0
  Blurred vision, Incidence (%): 0.00%
  Breast tenderness, # of Patients with AE: 0
  Breast tenderness, Incidence (%): 0.00%
  Chest tightness, # of Patients with AE: 0
  Chest tightness, Incidence (%): 0.00%
  Dazzle, # of Patients with AE: 0
  Dazzle, Incidence (%): 0.00%
  Diarrhea, # of Patients with AE: 0
  Diarrhea, Incidence (%): 0.00%
  Dizziness, # of Patients with AE: 0
  Dizziness, Incidence (%): 0.00%
  Dry mouth, # of Patients with AE: 0
  Dry mouth, Incidence (%): 0.00%
  Headache, # of Patients with AE: 0
  Headache, Incidence (%): 0.00%
  Hypersomnia, # of Patients with AE: 0
  Hypersomnia, Incidence (%): 0.00^## %
  Hypodynamia, # of Patients with AE: 0
  Hypodynamia, Incidence (%): 0.00%
  Nausea, # of Patients with AE: 1
  Nausea, Incidence (%): 0.70^# %
  Oral malodor, # of Patients with AE: 1
  Oral malodor, Incidence (%): 0.70%
  Patients with adverse events (total): 5 patients
  Rash, # of Patients with AE: 1
  Rash, Incidence (%): 0.70%
  Stomach ache, # of Patients with AE: 1
  Stomach ache, Incidence (%): 0.70%
  Stomach discomfort, # of Patients with AE: 1
  Stomach discomfort, Incidence (%): 0.70%
  Total incidence rate of adverse events: 3.50%
  Vertigo, # of Patients with AE: 0
  Vertigo, Incidence (%): 0.00^## %
  Vomiting, # of Patients with AE: 0
  Vomiting, Incidence (%): 0.00%
[3]; Mus musculus, iv, dosage of 50% inhibition rate
  ED50: 10.5 mg/kg
[3]; dosage of 90% inhibition rate
  ED90: 41.2
[4]
  Bloating, # of Patients with AE: 0
  Bloating, Incidence (%): 0.00%
  Constipation, # of Patients with AE: 1
  Constipation, Incidence (%): 0.72%
  Drowsy, # of Patients with AE: 0
  Drowsy, Incidence (%): 0.00%
  Dry mouth, # of Patients with AE: 0
  Dry mouth, Incidence (%): 0.00%
  Headache, # of Patients with AE: 0
  Headache, Incidence (%): 0.00%
  Hypersomnia, # of Patients with AE: 0
  Hypersomnia, Incidence (%): 0.00^# %
  Hypodynamia, # of Patients with AE: 0
  Hypodynamia, Incidence (%): 0.00%
  Loss of appetite, # of Patients with AE: 0
  Loss of appetite, Incidence (%): 0.00%
  Nausea, # of Patients with AE: 4
  Nausea, Incidence (%): 2.88%
  Palpitation, # of Patients with AE: 0
  Palpitation, Incidence (%): 0.00%
  Patients with adverse events (total): 5 patients
  Pruritus, # of Patients with AE: 0
  Pruritus, Incidence (%): 0.00%
  Rash, # of Patients with AE: 0
  Rash, Incidence (%): 0.00%
  Sourregurgitation, # of Patients with AE: 0
  Sourregurgitation, Incidence (%): 0.00%
  Stomach discomfort, # of Patients with AE: 0
  Stomach discomfort, Incidence (%): 0.00^# %
  Stupor, # of Patients with AE: 0
  Stupor, Incidence (%): 0.00%
  Total incidence rate of adverse events: 3.60%
  Vertigo, # of Patients with AE: 0
  Vertigo, Incidence (%): 0.00%
  Vomiting, # of Patients with AE: 0
  Vomiting, Incidence (%): 0.00%
[5]; 40 mg/kg, 0.5 h
  Number of Animals Fall Off: 0
[5]; 40 mg/kg, 1 h
  Number of Animals Fall Off: 1
[5]; 40 mg/kg, 2 h
  Number of Animals Fall Off: 0
[5]; 40 mg/kg, 3 h
  Number of Animals Fall Off: 0
[5]; 40 mg/kg, 4 h
  Number of Animals Fall Off: 0
[5]; 80 mg/kg, 0.5 h
  Number of Animals Fall Off: 0
[5]; 80 mg/kg, 1 h
  Number of Animals Fall Off: 0
[5]; 80 mg/kg, 2 h
  Number of Animals Fall Off: 0
[5]; 80 mg/kg, 3 h
  Number of Animals Fall Off: 1
[5]; 80 mg/kg, 4 h
  Number of Animals Fall Off: 1
[5]; 160 mg/kg, 0.5 h
  Number of Animals Fall Off: 0
[5]; 160 mg/kg, 1 h
  Number of Animals Fall Off: 0
[5]; 160 mg/kg, 2 h
  Number of Animals Fall Off: 3
[5]; 160 mg/kg, 3 h
  Number of Animals Fall Off: 2
[5]; 160 mg/kg, 4 h
  Number of Animals Fall Off: 1
[6]
  Distribution in different region of brain, levo- vs dextro-ornidazole: Similar
[7]; both, 40 mg/kg, 30 min
  Number of animals Loss of Righting Flex 30 min Post-dose: 0
[7]; both, 80 mg/kg, 30 min
  Number of animals Loss of Righting Flex 30 min Post-dose: 0
[7]; both, 160 mg/kg, 30 min
  Number of animals Loss of Righting Flex 30 min Post-dose: 0
[7]; 160 mg/kg
  Number of animals Loss of Righting Flex 30 min Post-dose: none
[8]
  Toxicity Severity: Mild

From patent publication US20130202698A1 (NANJING SANHOME PHARMACEUTICAL CO., LTD., priority 2005, published 2013)
